Source: PubChem BioAssay (NCI)
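Cells were grown in 96-well plates and exposed to each compound for 48 hours at five concentrations; endpoints were interpolated linearly between bracketing concentrations, or set to the highest concentration if not reached. TGI marks complete inhibition of growth.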

Experiments:
Assay in all cases: DTP human tumour cell line panel, 48 h
OVCAR-3 ovarian = tested on: OVCAR-3 ovarian
HL-60(TB) leukemia = tested on: HL-60(TB) leukemia
MDA-MB-435 = tested on: MDA-MB-435
CAKI-1 renal = tested on: CAKI-1 renal
NCI-H23 lung = tested on: NCI-H23 lung
MDA-MB-231 breast = tested on: MDA-MB-231 breast
MOLT-4 leukemia = tested on: MOLT-4 leukemia
ACHN renal = tested on: ACHN renal
NCI/ADR-RES ovarian = tested on: NCI/ADR-RES ovarian
DU-145 prostate = tested on: DU-145 prostate
TK-10 renal = tested on: TK-10 renal
NCI-H460 lung = tested on: NCI-H460 lung
MCF7 breast = tested on: MCF7 breast
A549 NSCLC = tested on: A549 NSCLC
SW-620 colon = tested on: SW-620 colon
SF-295 CNS = tested on: SF-295 CNS
M14 melanoma = tested on: M14 melanoma
UACC-62 melanoma = tested on: UACC-62 melanoma
BT-549 breast = tested on: BT-549 breast
SK-MEL-28 melanoma = tested on: SK-MEL-28 melanoma
K-562 leukemia = tested on: K-562 leukemia
UO-31 renal = tested on: UO-31 renal
OVCAR-4 ovarian = tested on: OVCAR-4 ovarian
SF-268 CNS = tested on: SF-268 CNS
PC-3 prostate = tested on: PC-3 prostate
COLO 205 colon = tested on: COLO 205 colon
SK-OV-3 ovarian = tested on: SK-OV-3 ovarian
SF-539 CNS = tested on: SF-539 CNS
RPMI-8226 leukemia = tested on: RPMI-8226 leukemia
HCT-116 colon = tested on: HCT-116 colon
UACC-257 melanoma = tested on: UACC-257 melanoma
HT29 colon = tested on: HT29 colon
EKVX NSCLC = tested on: EKVX NSCLC
LOX IMVI melanoma = tested on: LOX IMVI melanoma
HOP-92 NSCLC = tested on: HOP-92 NSCLC
MALME-3M melanoma = tested on: MALME-3M melanoma
SN12C renal = tested on: SN12C renal
A498 renal = tested on: A498 renal
SK-MEL-2 melanoma = tested on: SK-MEL-2 melanoma
SK-MEL-5 melanoma = tested on: SK-MEL-5 melanoma
HCT-15 colon = tested on: HCT-15 colon
OVCAR-5 ovarian = tested on: OVCAR-5 ovarian
HS 578T breast = tested on: HS 578T breast
SNB-19 CNS = tested on: SNB-19 CNS
MDA-N = tested on: MDA-N
RXF 393 renal = tested on: RXF 393 renal
KM12 colon = tested on: KM12 colon
NCI-H226 lung = tested on: NCI-H226 lung
IGROV1 ovarian = tested on: IGROV1 ovarian
HOP-62 NSCLC = tested on: HOP-62 NSCLC
NCI-H522 lung = tested on: NCI-H522 lung
SR leukemia = tested on: SR leukemia
U251 CNS = tested on: U251 CNS
SNB-75 CNS = tested on: SNB-75 CNS
HCC-2998 colon = tested on: HCC-2998 colon
786-0 renal = tested on: 786-0 renal
CCRF-CEM leukemia = tested on: CCRF-CEM leukemia
T-47D breast = tested on: T-47D breast
OVCAR-8 ovarian = tested on: OVCAR-8 ovarian
DMS 114 small cell lung = tested on: DMS 114 small cell lung
SNB-78 CNS = tested on: SNB-78 CNS
M19-MEL melanoma = tested on: M19-MEL melanoma
KM20L2 colon = tested on: KM20L2 colon
DMS 273 small cell lung = tested on: DMS 273 small cell lung
LXFL 529 NSCLC = tested on: LXFL 529 NSCLC

Q: Which TGI (OVCAR-3 ovarian) does the source give for `Nc1nccc(Nc2ccc(S(N)(=O)=O)cc2)n1` here?
A: > 100 µM

Q: What about the TGI (HL-60(TB) leukemia) of the same compound?
A: > 100 µM

Q: What about the TGI (MDA-MB-435) of the same compound?
A: > 100 µM

Q: And the TGI (CAKI-1 renal)?
A: > 100 µM

Q: What about the TGI (NCI-H23 lung) of the same compound?
A: > 100 µM

Q: What about the TGI (MDA-MB-231 breast) of the same compound?
A: > 100 µM

Q: And the TGI (MOLT-4 leukemia)?
A: > 100 µM

Q: And the TGI (ACHN renal)?
A: > 100 µM

Q: And the TGI (NCI/ADR-RES ovarian)?
A: > 100 µM

Q: And the TGI (DU-145 prostate)?
A: > 100 µM

Q: What about the TGI (TK-10 renal) of the same compound?
A: > 100 µM

Q: And the TGI (NCI-H460 lung)?
A: > 100 µM

Q: What about the TGI (MCF7 breast) of the same compound?
A: > 100 µM

Q: And the TGI (A549 NSCLC)?
A: > 100 µM

Q: And the TGI (SW-620 colon)?
A: > 100 µM

Q: What about the TGI (SF-295 CNS) of the same compound?
A: > 100 µM

Q: And the TGI (M14 melanoma)?
A: > 100 µM

Q: What about the TGI (UACC-62 melanoma) of the same compound?
A: > 100 µM

Q: What about the TGI (BT-549 breast) of the same compound?
A: > 100 µM

Q: What about the TGI (SK-MEL-28 melanoma) of the same compound?
A: > 100 µM

Q: And the TGI (K-562 leukemia)?
A: > 100 µM

Q: And the TGI (UO-31 renal)?
A: > 100 µM

Q: What about the TGI (OVCAR-4 ovarian) of the same compound?
A: > 100 µM

Q: What about the TGI (SF-268 CNS) of the same compound?
A: > 100 µM

Q: What about the TGI (PC-3 prostate) of the same compound?
A: > 100 µM

Q: What about the TGI (COLO 205 colon) of the same compound?
A: > 100 µM

Q: And the TGI (SK-OV-3 ovarian)?
A: > 100 µM

Q: What about the TGI (SF-539 CNS) of the same compound?
A: > 100 µM

Q: What about the TGI (RPMI-8226 leukemia) of the same compound?
A: > 100 µM

Q: What about the TGI (HCT-116 colon) of the same compound?
A: > 100 µM

Q: And the TGI (UACC-257 melanoma)?
A: > 100 µM

Q: What about the TGI (HT29 colon) of the same compound?
A: > 100 µM

Q: What about the TGI (EKVX NSCLC) of the same compound?
A: > 100 µM

Q: What about the TGI (LOX IMVI melanoma) of the same compound?
A: > 100 µM

Q: And the TGI (HOP-92 NSCLC)?
A: > 100 µM

Q: And the TGI (MALME-3M melanoma)?
A: > 100 µM

Q: What about the TGI (SN12C renal) of the same compound?
A: > 100 µM

Q: And the TGI (A498 renal)?
A: > 100 µM

Q: And the TGI (SK-MEL-2 melanoma)?
A: > 100 µM

Q: What about the TGI (SK-MEL-5 melanoma) of the same compound?
A: > 100 µM

Q: And the TGI (HCT-15 colon)?
A: > 100 µM

Q: What about the TGI (OVCAR-5 ovarian) of the same compound?
A: > 100 µM

Q: And the TGI (HS 578T breast)?
A: > 100 µM

Q: And the TGI (SNB-19 CNS)?
A: > 100 µM

Q: What about the TGI (MDA-N) of the same compound?
A: > 100 µM

Q: And the TGI (RXF 393 renal)?
A: > 100 µM

Q: And the TGI (KM12 colon)?
A: > 100 µM

Q: And the TGI (NCI-H226 lung)?
A: > 100 µM

Q: And the TGI (IGROV1 ovarian)?
A: > 100 µM

Q: What about the TGI (HOP-62 NSCLC) of the same compound?
A: > 100 µM

Q: And the TGI (NCI-H522 lung)?
A: > 100 µM

Q: And the TGI (SR leukemia)?
A: > 100 µM

Q: And the TGI (U251 CNS)?
A: > 100 µM

Q: And the TGI (SNB-75 CNS)?
A: > 100 µM

Q: What about the TGI (HCC-2998 colon) of the same compound?
A: > 100 µM

Q: And the TGI (786-0 renal)?
A: > 100 µM

Q: And the TGI (CCRF-CEM leukemia)?
A: > 100 µM

Q: What about the TGI (T-47D breast) of the same compound?
A: > 100 µM

Q: And the TGI (OVCAR-8 ovarian)?
A: > 100 µM

Q: How did the TGI (OVCAR-3 ovarian) turn out when `CCCCCCCCCC(=O)OCC1OC(n2cc(F)c(=O)[nH]c2=O)C(N)C(OC(=O)CCCCCCCCC)C1O` (configuration not stated) was run?
A: 32.7 µM

Q: And the TGI (HL-60(TB) leukemia)?
A: 55.1 µM

Q: And the TGI (CAKI-1 renal)?
A: > 100 µM

Q: And the TGI (NCI-H23 lung)?
A: 36 µM

Q: What about the TGI (MOLT-4 leukemia) of the same compound?
A: 32.7 µM

Q: And the TGI (ACHN renal)?
A: > 100 µM

Q: And the TGI (TK-10 renal)?
A: > 100 µM

Q: What about the TGI (NCI-H460 lung) of the same compound?
A: 40.5 µM

Q: And the TGI (A549 NSCLC)?
A: 34.1 µM

Q: What about the TGI (DMS 114 small cell lung) of the same compound?
A: 29.6 µM

Q: What about the TGI (SW-620 colon) of the same compound?
A: 31.8 µM

Q: What about the TGI (SNB-78 CNS) of the same compound?
A: 36.8 µM

Q: What about the TGI (SF-295 CNS) of the same compound?
A: 31.9 µM

Q: And the TGI (M14 melanoma)?
A: 34.3 µM

Q: What about the TGI (UACC-62 melanoma) of the same compound?
A: 32.7 µM

Q: And the TGI (SK-MEL-28 melanoma)?
A: 30.4 µM

Q: And the TGI (K-562 leukemia)?
A: 36.7 µM

Q: And the TGI (UO-31 renal)?
A: 54.9 µM

Q: And the TGI (OVCAR-4 ovarian)?
A: 31 µM

Q: And the TGI (SF-268 CNS)?
A: 40.2 µM

Q: And the TGI (COLO 205 colon)?
A: 31.2 µM

Q: And the TGI (SK-OV-3 ovarian)?
A: > 100 µM

Q: What about the TGI (SF-539 CNS) of the same compound?
A: 33.7 µM

Q: And the TGI (RPMI-8226 leukemia)?
A: 48.4 µM

Q: What about the TGI (M19-MEL melanoma) of the same compound?
A: 31.2 µM

Q: And the TGI (HCT-116 colon)?
A: 32.1 µM

Q: And the TGI (UACC-257 melanoma)?
A: 39 µM

Q: And the TGI (HT29 colon)?
A: 35.8 µM

Q: What about the TGI (EKVX NSCLC) of the same compound?
A: 34.1 µM

Q: And the TGI (LOX IMVI melanoma)?
A: 30.1 µM

Q: And the TGI (HOP-92 NSCLC)?
A: 37 µM

Q: And the TGI (MALME-3M melanoma)?
A: 35.2 µM

Q: What about the TGI (SN12C renal) of the same compound?
A: 32.2 µM

Q: What about the TGI (A498 renal) of the same compound?
A: 31.6 µM

Q: And the TGI (SK-MEL-2 melanoma)?
A: 29.6 µM

Q: And the TGI (SK-MEL-5 melanoma)?
A: 37.4 µM

Q: What about the TGI (HCT-15 colon) of the same compound?
A: 34.7 µM

Q: What about the TGI (KM20L2 colon) of the same compound?
A: 34.8 µM

Q: And the TGI (SNB-19 CNS)?
A: 33.6 µM

Q: What about the TGI (RXF 393 renal) of the same compound?
A: 31.9 µM

Q: And the TGI (KM12 colon)?
A: 41.2 µM

Q: What about the TGI (DMS 273 small cell lung) of the same compound?
A: 38 µM

Q: What about the TGI (IGROV1 ovarian) of the same compound?
A: > 100 µM

Q: What about the TGI (HOP-62 NSCLC) of the same compound?
A: > 100 µM

Q: What about the TGI (NCI-H522 lung) of the same compound?
A: 30.1 µM

Q: What about the TGI (SR leukemia) of the same compound?
A: 45.3 µM

Q: What about the TGI (U251 CNS) of the same compound?
A: 32.3 µM

Q: And the TGI (SNB-75 CNS)?
A: 34.4 µM

Q: And the TGI (HCC-2998 colon)?
A: 33.3 µM

Q: What about the TGI (786-0 renal) of the same compound?
A: 32.9 µM

Q: What about the TGI (LXFL 529 NSCLC) of the same compound?
A: 30.2 µM

Q: What about the TGI (CCRF-CEM leukemia) of the same compound?
A: 50.4 µM

Q: What about the TGI (OVCAR-8 ovarian) of the same compound?
A: 34.6 µM
